Assay results published in patent publication US20230200390A1, “SELECTIVE HERBICIDES BASED ON SUBSTITUTED ISOXAZOLIN CARBOXAMIDES AND MEFENPYR-DIETHYL” (BAYER AKTIENGESELLSCHAFT, priority 2020, published 2023).

Assays:
Assay type in all cases: in vivo
[1] = test system: spring wheat, TRZAS Triso; assay: Tank-mix; post-emergence: crop damage by herbicide with/without safener mefenpyr-diethyl
Outline: (§1)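 Visual percent crop damage (0–100 relative to untreated plants) assessed 1–3 weeks post-application. Plants in sandy loam were sprayed at the 1–3-leaf stage with herbicide with or without safener at several rates, water volume 300 l/ha.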

[2] = test system: spring barley, HORVS Montoya; assay: as above
Outline: as §1

[3] = test system: spring wheat, TRZAS Triso; assay: Seed treatment with safener; post-emergence herbicide, crop damage; settings: for HER effect + SAF [%] (crop damage) / Reduction [%] / Reduction [Difference]: mefenpyr-diethyl 0.5 g a.i./kg seed; for HER effect [%] (crop damage, herbicide without safener): no safener
Outline: (§2)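 Crop injury was rated visually in % at 10 and 21 days after post-emergence spraying at the 2-leaf stage. The herbicide was a WP in 300 l/ha water plus 1 l/ha MERO. Plants grew from seed either safener-coated at stated g a.i./kg rates via a milk-diluted slurry, or untreated.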

[4] = test system: spring barley, HORVS Montoya; assay: as above; settings: for HER effect + SAF / Reduction [%] / Reduction [Difference]: mefenpyr-diethyl 0.5 g a.i./kg seed
Outline: as §2

[5] = HER 2 g a.i./ha + mefenpyr-diethyl 50 g a.i./ha, 21 DAT
[6] = HER 8 g a.i./ha + mefenpyr-diethyl 50 g a.i./ha, 21 DAT
[7] = herbicide alone 2 g a.i./ha, 21 DAT
[8] = herbicide alone 8 g a.i./ha, 21 DAT
[9] = HER 8 g a.i./ha + mefenpyr-diethyl 50 g a.i./ha, 10 DAT
[10] = HER 32 g a.i./ha + mefenpyr-diethyl 100 g a.i./ha, 10 DAT
[11] = herbicide alone 8 g a.i./ha, 10 DAT
[12] = herbicide alone 32 g a.i./ha, 10 DAT
[13] = HER 8 g a.i./ha post-emergence, 10 DAT
[14] = HER 32 g a.i./ha post-emergence, 10 DAT
[15] = HER 1.5 g a.i./ha + mefenpyr-diethyl 50 g a.i./ha, 21 DAT
[16] = HER 0.5 g a.i./ha post-emergence, 21 DAT
[17] = HER 2 g a.i./ha post-emergence, 21 DAT
[18] = HER 8 g a.i./ha post-emergence, 21 DAT
[19] = herbicide alone 8 g a.i./ha post-emergence, 21 DAT
[20] = HER 1.5 g a.i./ha + mefenpyr-diethyl 50 g a.i./ha, 10 DAT
[21] = HER 6 g a.i./ha + mefenpyr-diethyl 50 g a.i./ha, 10 DAT
[22] = HER 24 g a.i./ha + mefenpyr-diethyl 100 g a.i./ha, 10 DAT
[23] = HER 32 g a.i./ha + mefenpyr-diethyl 100 g a.i./ha, 21 DAT
[24] = herbicide alone 32 g a.i./ha, 21 DAT
[25] = HER 32 g a.i./ha post-emergence, 21 DAT
[26] = herbicide alone 32 g a.i./ha post-emergence, 21 DAT

## COC(=O)C1COCC1NC(=O)C1(C)CC(c2cc(F)cc(F)c2)=NO1 (mixture of isomers) [Example 1.93]
[1]; [5]
  HER effect + SAF: 10%
  Reduction [%]: 88%
  Reduction [Difference]: 75
[1]; [6]
  HER effect + SAF: 50%
  Reduction [%]: 46%
  Reduction [Difference]: 43
[1]; [7]
  HER effect: 85%
[1]; [8]
  HER effect: 93%
[2]; [9]
  HER effect + SAF: 10%
  Reduction [%]: 88%
  Reduction [Difference]: 75
[2]; [10]
  HER effect + SAF: 30%
  Reduction [%]: 67%
  Reduction [Difference]: 60
[2]; [11]
  HER effect: 85%
[2]; [12]
  HER effect: 90%
[3]; 21 DAT, HER dose 2 g a.i./ha
  HER effect + SAF [%] (crop damage): 0%
  Reduction [%]: 100%
  Reduction [Difference]: 85
  HER effect [%] (crop damage, herbicide without safener): 85%
[3]; 21 DAT, HER dose 8 g a.i./ha
  HER effect + SAF [%] (crop damage): 10%
  Reduction [%]: 89%
  Reduction [Difference]: 83
  HER effect [%] (crop damage, herbicide without safener): 93%
[3]; 21 DAT, HER dose 32 g a.i./ha
  HER effect + SAF [%] (crop damage): 20%
  Reduction [%]: 79%
  Reduction [Difference]: 75
  HER effect [%] (crop damage, herbicide without safener): 95%
[4]; [13]
  HER effect + SAF: 30%
  Reduction [%]: 65%
  Reduction [Difference]: 55
[4]; [14]
  HER effect + SAF: 70%
  Reduction [%]: 22%
  Reduction [Difference]: 20
[4]; herbicide alone 8 g a.i./ha post-emergence, 10 DAT
  HER effect: 85%
[4]; herbicide alone 32 g a.i./ha post-emergence, 10 DAT
  HER effect: 90%

## CC(C)OC(=O)C1CC(NC(=O)C2(C(C)(F)F)CC(c3cc(F)cc(F)c3)=NO2)CO1 (mixture of isomers) [Example 1.88]
[1]; [5]
  HER effect + SAF: 30%
  Reduction [%]: 57%
  Reduction [Difference]: 40
[1]; [7]
  HER effect: 70%
[2]; [15]
  HER effect + SAF: 10%
  Reduction [%]: 75%
  Reduction [Difference]: 30
[2]; herbicide alone 1.5 g a.i./ha, 21 DAT
  HER effect: 40%
[3]; 21 DAT, HER dose 2 g a.i./ha
  HER effect + SAF [%] (crop damage): 10%
  Reduction [%]: 86%
  Reduction [Difference]: 60
  HER effect [%] (crop damage, herbicide without safener): 70%
[3]; 21 DAT, HER dose 8 g a.i./ha
  HER effect + SAF [%] (crop damage): 20%
  Reduction [%]: 76%
  Reduction [Difference]: 65
  HER effect [%] (crop damage, herbicide without safener): 85%
[4]; [16]
  HER effect + SAF: 0%
  Reduction [%]: 100%
  Reduction [Difference]: 20
[4]; [17]
  HER effect + SAF: 10%
  Reduction [%]: 80%
  Reduction [Difference]: 40
[4]; [18]
  HER effect + SAF: 20%
  Reduction [%]: 76%
  Reduction [Difference]: 65
[4]; herbicide alone 0.5 g a.i./ha post-emergence, 21 DAT
  HER effect: 20%
[4]; herbicide alone 2 g a.i./ha post-emergence, 21 DAT
  HER effect: 50%
[4]; [19]
  HER effect: 85%

## CC(C)OC(=O)C1CC(NC(=O)C2(C)CC(c3cccc(F)c3)=NO2)CO1 (mixture of isomers) [Example 1.78]
[1]; [20]
  HER effect + SAF: 0%
  Reduction [%]: 100%
  Reduction [Difference]: 20
[1]; [21]
  HER effect + SAF: 10%
  Reduction [%]: 86%
  Reduction [Difference]: 60
[1]; [22]
  HER effect + SAF: 30%
  Reduction [%]: 57%
  Reduction [Difference]: 40
[1]; herbicide alone 1.5 g a.i./ha, 10 DAT
  HER effect: 20%
[1]; herbicide alone 6 g a.i./ha, 10 DAT
  HER effect: 70%
[1]; herbicide alone 24 g a.i./ha, 10 DAT
  HER effect: 70%
[2]; [23]
  HER effect + SAF: 10%
  Reduction [%]: 75%
  Reduction [Difference]: 30
[2]; [24]
  HER effect: 40%
[3]; 10 DAT, HER dose 6 g a.i./ha
  HER effect + SAF [%] (crop damage): 30%
  Reduction [%]: 57%
  Reduction [Difference]: 40
  HER effect [%] (crop damage, herbicide without safener): 70%
[3]; 10 DAT, HER dose 24 g a.i./ha
  HER effect + SAF [%] (crop damage): 30%
  Reduction [%]: 57%
  Reduction [Difference]: 40
  HER effect [%] (crop damage, herbicide without safener): 70%
[4]; [18]
  HER effect + SAF: 0%
  Reduction [%]: 100%
  Reduction [Difference]: 20
[4]; [25]
  HER effect + SAF: 10%
  Reduction [%]: 75%
  Reduction [Difference]: 30
[4]; [19]
  HER effect: 20%
[4]; [26]
  HER effect: 40%

## COC(=O)C1C=CC(NC(=O)C2(C)CC(c3cccc(F)c3)=NO2)C1 (centres unmarked) [Example 1.20]
[1]; [9]
  HER effect + SAF: 0%
  Reduction [%]: 100%
  Reduction [Difference]: 20
[1]; [10]
  HER effect + SAF: 30%
  Reduction [%]: 40%
  Reduction [Difference]: 20
[1]; [11]
  HER effect: 20%
[1]; [12]
  HER effect: 50%
[2]; [6]
  HER effect + SAF: 0%
  Reduction [%]: 100%
  Reduction [Difference]: 30
[2]; [23]
  HER effect + SAF: 40%
  Reduction [%]: 50%
  Reduction [Difference]: 40
[2]; [8]
  HER effect: 30%
[2]; [24]
  HER effect: 80%
[3]; 10 DAT, HER dose 8 g a.i./ha
  HER effect + SAF [%] (crop damage): 0%
  Reduction [%]: 100%
  Reduction [Difference]: 20
  HER effect [%] (crop damage, herbicide without safener): 20%
[3]; 10 DAT, HER dose 32 g a.i./ha
  HER effect + SAF [%] (crop damage): 0%
  Reduction [%]: 100%
  Reduction [Difference]: 50
  HER effect [%] (crop damage, herbicide without safener): 50%
[4]; [18]
  HER effect + SAF: 10%
  Reduction [%]: 67%
  Reduction [Difference]: 20
[4]; [25]
  HER effect + SAF: 20%
  Reduction [%]: 75%
  Reduction [Difference]: 60
[4]; [19]
  HER effect: 30%
[4]; [26]
  HER effect: 80%
